Data: patent US10329324B2 (viDA Therapeutics Inc., priority 2013, dated 2019)
Where two headings read alike, the source gives them in different places.

What was measured:
[1] = molecular target: T1, human Granzyme B (hGzmB) (Homo sapiens, UniProt P10144); assay: Human Granzyme B enzymatic inhibition assay (fluorogenic, kinetic); format: biochemical; details: activity codes, Table 7; read-out: IC50 Activity Range
T1 construct: purchased Froelich Lab, Northshore University Health Systems Research Institute, Evanston, Ill., USA
Method in brief: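 Human Granzyme B preincubated with compound for 30 min total (5 min shaking, 20 min bench, then reaction temperature). Fluorogenic substrate added and read kinetically, 25 cycles at 1-min intervals. Percent inhibition at one or two concentrations or 8–12-point 3-fold dose response from 20 uM, replicates, with IC50 by non-linear regression.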

[2] = Kinetic solubility determination in PBS; format: physicochemical; details: phosphate buffered saline (PBS 1×), 21 °C, pH 7.4, aqueous buffer, kinetic from dmso stock, PBS 1X pH 7.4, 2.0% DMSO, 24 hour incubation at ambient temperature
Method in brief: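 DMSO stocks were diluted into PBS (1×) pH 7.4 to 2.0% final DMSO and a maximum theoretical concentration of typically 200 μM. After 24 hour incubation at ambient temperature (20.5-21.7° C.), samples were vacuum filtered. The filtrate was quantified by chemiluminescent nitrogen detection against a nitrogen calibration curve, with background-corrected values given in μM and μg/mL.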

[3] = read-out: Solubility in aqueous PBS Buffer (1X, pH 7.4)
[4] = read-out: Solubility in aqueous PBS Buffer (1X, pH 7.4), ug/mL

T1 sequence (P10144 21-247): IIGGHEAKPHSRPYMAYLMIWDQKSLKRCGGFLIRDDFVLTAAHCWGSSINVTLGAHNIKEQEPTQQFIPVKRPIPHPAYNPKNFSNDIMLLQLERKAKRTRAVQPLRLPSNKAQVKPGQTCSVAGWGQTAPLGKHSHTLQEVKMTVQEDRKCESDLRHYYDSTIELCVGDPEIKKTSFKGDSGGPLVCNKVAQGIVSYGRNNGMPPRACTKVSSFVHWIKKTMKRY

Structure (SMILES) | IC50 [1] [nM] | solubility at 24 h [2, 3] [µM] | solubility at 24 h [2, 4] [µg/mL]
CC[C@H](C)[C@H](NC(=O)[C@H](O)[C@@H](O)C(=O)O)C(=O)NCC(=O)N1c2ccccc2C[C@H]1C(=O)NCc1nn[nH]n1 [Example A32, (2R,3R)-2,3-Dihydroxy-3-{[(1S,2S)-2-Methyl-1-({2-Oxo-2-[(2S)-2-[(2H-1,2,3,4-Tetrazol-5-Ylmethyl)Carbamoyl]-2,3-Dihydro-1H-Indol-1-Yl]Ethyl}Carbamoyl)Butyl]Carbamoyl}Propanoic Acid] | < 100 | > 750 | > 410
CC[C@H](C)[C@H](NC(=O)Cc1ccc(CC(=O)O)cc1)C(=O)NCC(=O)N1c2ccccc2C[C@H]1C(=O)NCc1nn[nH]n1 [Example A34, 2-[4-({[(1S,2S)-2-Methyl-1-({2-Oxo-2-[(2S)-2-[(2H-1,2,3,4-Tetrazol-5-Ylmethyl)Carbamoyl]-2,3-Dihydro-1H-Indol-1-Yl]Ethyl}Carbamoyl)Butyl]Carbamoyl}Methyl)Phenyl]Acetic Acid] | < 100 | > 750 | > 443
CC[C@H](C)[C@H](NC(=O)C(F)(F)C(F)(F)C(=O)O)C(=O)NCC(=O)N1c2ccccc2C[C@H]1C(=O)NCc1nn[nH]n1 [Example A43, 2,2,3,3-Tetrafluoro-3-{[(1S,2S)-2-Methyl-1-({2-Oxo-2-[(2S)-2-[(2H-1,2,3,4-Tetrazol-5-Ylmethyl)Carbamoyl]-2,3-Dihydro-1H-Indol-1-Yl]Ethyl}Carbamoyl)Butyl]Carbamoyl}Propanoic Acid] | < 100 | 583 | 342
CC[C@H](C)[C@H](NC(=O)CN(C)CC(=O)O)C(=O)NCC(=O)N1c2ccccc2C[C@H]1C(=O)NCc1nn[nH]n1 [Example A44, 2-[Methyl({[(1S,2S)-2-Methy-1-({2-Oxo-2-[(2S)-2-[(2H-1,2,3,4-Tetrazol-5-Ylmethyl)Carbamoyl]-2,3-Dihydro-1H-Indol-1-Yl]Ethyl}Carbamoyl)Butyl]Carbamoyl}Methyl)Amino]Acetic Acid] | 100 to 1000 | 724 | 467
O=C(O)CCC(=O)N[C@H](C(=O)NCC(=O)N1c2ccccc2C[C@H]1C(=O)NCc1nn[nH]n1)C1CCCC1 [Example A45, 3-{[(S)-Cyclopentyl({2-Oxo-2-[(2S)-2-[(2H-1,2,3,4-Tetrazol-5-Ylmethyl)Carbamoyl]-2,3-Dihydro-1H-Indol-1-Yl]Ethyl}Carbamoyl)Methyl]Carbamoyl}Propanoic Acid] | < 100 | 682 | 359
CC(C)[C@H](NC(=O)CCC(=O)O)C(=O)NCC(=O)N1c2ccccc2C[C@H]1C(=O)NCc1nn[nH]n1 [Example A46, 3-{[(1S)-2-Methyl-1-({2-Oxo-2-[(2S)-2-[(2H-1,2,3,4-Tetrazol-5-Ylmethyl)Carbamoyl]-2,3-Dihydro-1H-Indol-1-Yl]Ethyl}Carbamoyl)Propyl]Carbamoyl}Propanoic Acid] | < 100 | > 750 | > 375
CC[C@H](C)[C@H](NC(=O)CCC(C)(C)C(=O)O)C(=O)NCC(=O)N1c2ccccc2C[C@H]1C(=O)NCc1nn[nH]n1 [Example A52, 2,2-Dimethyl-4-{[(1S,2S)-2-Methyl-1-({2-Oxo-2-[(2S)-2-[(2H-1,2,3,4-Tetrazol-5-Ylmethyl)Carbamoyl]-2,3-Dihydro-1H-Indol-1-Yl]Ethyl}Carbamoyl)Butyl]Carbamoyl}Butanoic Acid] | < 100 | > 750 | > 418
CC[C@H](C)[C@H](NC(=O)CC(C)(C)C(=O)O)C(=O)NCC(=O)N1c2ccccc2C[C@H]1C(=O)NCc1nn[nH]n1 [Example A53, 2,2-Dimethyl-3-{[(1S,2S)-2-Methyl-1-({2-Oxo-2-[(2S)-2-[(2H-1,2,3,4-Tetrazol-5-Ylmethyl)Carbamoyl]-2,3-Dihydro-1H-Indol-1-Yl]Ethyl}Carbamoyl)Butyl]Carbamoyl}Propanoic Acid] | < 100 | > 750 | > 407
CC[C@H](C)[C@H](NC(=O)C(C)(C)CCC(=O)O)C(=O)NCC(=O)N1c2ccccc2C[C@H]1C(=O)NCc1nn[nH]n1 [Example A55, 4,4-Dimethyl-4-{[(1S,2S)-2-Methyl-1-({2-Oxo-2-[(2S)-2-[(2H-1,2,3,4-Tetrazol-5-Ylmethyl)Carbamoyl]-2,3-Dihydro-1H-Indol-1-Yl]Ethyl}Carbamoyl)Butyl]Carbamoyl}Butanoic Acid] | < 100 | > 750 | > 418
CC[C@H](C)[C@H](NC(=O)C(C)(C)CC(=O)O)C(=O)NCC(=O)N1c2ccccc2C[C@H]1C(=O)NCc1nn[nH]n1 [Example A56, 3,3-Dimethyl-3-{[(1S,2S)-2-Methyl-1-({2-Oxo-2-[(2S)-2-[(2H-1,2,3,4-Tetrazol-5-Ylmethyl)Carbamoyl]-2,3-Dihydro-1H-Indol-1-Yl]Ethyl}Carbamoyl)Butyl]Carbamoyl}Propanoic Acid] | < 100 | > 750 | > 407
CC[C@H](C)[C@H](NC(=O)Cc1ccccc1)C(=O)NCC(=O)N1c2ccccc2C[C@H]1C(=O)NCc1c[nH]nn1 [Example B1, (2S)-1-{2-[(2S,3S)-3-Methyl-2-(2-Phenylacetamido)Pentanamido]Acetyl}-N-(1H-1,2,3-Triazol-4-Ylmethyl)-2,3-Dihydro-1H-Indole-2-Carboxamide] | 100 to 1000 | 97 | 62
CC(C)[C@H](NC(=O)Cc1ccccc1)C(=O)NCC(=O)N1c2ccccc2C[C@H]1C(=O)NCc1nn[nH]n1 [Example C1, (2S)-1-{2-[(2S)-3-Methyl-2-(2-Phenylacetamido)Butanamido]Acetyl}-N-(2H-1,2,3,4-Tetrazol-5-Ylmethyl)-2,3-Dihydro-1H-Indole-2-Carboxamide] | 100 to 1000 | > 150 | > 78
CC[C@H](C)[C@H](NC(=O)Cc1ccccc1)C(=O)N[C@@H](C)C(=O)N1c2ccccc2C[C@H]1C(=O)NCc1nn[nH]n1 [Example C11, (2S)-1-[(2S)-2-[(2S,3S)-3-Methyl-2-(2-Phenylacetamido)Pentanamido]Propanoyl]-N-(2H-1,2,3,4-Tetrazol-5-Ylmethyl)-2,3-Dihydro-1H-Indole-2-Carboxamide] | 1000 to 10000 | 125 | 68
CC[C@H](C)[C@H](NC(=O)Cc1ccccc1)C(=O)N[C@H](C)C(=O)N1c2ccccc2C[C@H]1C(=O)NCc1nn[nH]n1 [Example C12, (2S)-1-[(2R)-2-[(2S,3S)-3-Methyl-2-(2-Phenylacetamido)Pentanamido]Propanoyl]-N-(2H-1,2,3,4-Tetrazol-5-Ylmethyl)-2,3-Dihydro-1H-Indole-2-Carboxamide] | > 10000 | 112 | 61
CC[C@H](C)[C@H](NC(=O)Cc1ccccc1)C(=O)N[C@@H](CCC(=O)O)C(=O)N1c2ccccc2C[C@H]1C(=O)NCc1nn[nH]n1 [Example C13, (4S)-4-[(2S,3S)-3-Methyl-2-(2-Phenylacetamido)Pentanamido]-5-Oxo-5-[(2S)-2-[(2H-1,2,3,4-Tetrazol-5-Ylmethyl)Carbamoyl]-2,3-Dihydro-1H-Indol-1-Yl]Pentanoic Acid] | 100 to 1000 | > 750 | > 454
CC[C@H](C)[C@H](NC(=O)Cc1ccccc1)C(=O)NCC(=O)N1c2cc(N)ccc2C[C@H]1C(=O)NCc1nn[nH]n1 [Example C20, (2S)-6-Amino-1-{2-[(2S,3S)-3-Methyl-2-(2-Phenylacetamido)Pentanamido]Acetyl}-N-(2H-1,2,3,4-Tetrazol-5-Ylmethyl)-2,3-Dihydro-1H-Indole-2-Carboxamide] | 100 to 1000 | 596 | 348
CC[C@H](C)[C@H](NC(=O)Cc1ccccc1)C(=O)NCC(=O)N1c2cc(NC(=O)CCC(=O)O)ccc2C[C@H]1C(=O)NCc1nn[nH]n1 [Example C22, 3-{[(2S)-1-{2-[(2S,3S)-3-Methyl-2-(2-Phenylacetamido)Pentanamido]Acetyl}-2-[(2H-1,2,3,4-Tetrazol-5-Ylmethyl)Carbamoyl]-2,3-Dihydro-1H-Indol-6-Yl]Carbamoyl}Propanoic Acid] | < 100 | > 750 | > 486
O=C(O)CCC(=O)N[C@H](C(=O)NCC(=O)N1c2ccccc2C[C@H]1C(=O)NCc1nn[nH]n1)c1cccs1 [Example C24, 3-{[(R)-({2-Oxo-2-[(2S)-2-[(2H-1,2,3,4-Tetrazol-5-Ylmethyl)Carbamoyl]-2,3-Dihydro-1H-Indol-1-Yl]Ethyl}Carbamoyl)(Thiophen-2-Yl)Methyl]Carbamoyl}Propanoic Acid] | 100 to 1000 | > 750 | > 405
CC[C@H](C)[C@H](NC(=O)Cc1ccccc1)C(=O)NCC(=O)N1c2cc(NC(C)=O)ccc2C[C@H]1C(=O)NCc1nn[nH]n1 [Example C27, (2S)-6-Acetamido-1-{2-[(2S,3S)-3-Methyl-2-(2-Phenylacetamido)Pentanamido]Acetyl}-N-(2H-1,2,3,4-Tetrazol-5-Ylmethyl)-2,3-Dihydro-1H-Indole-2-Carboxamide] | 100 to 1000 | > 750 | > 442
